The values that follow come from patent publication US6037365A, “Aminobenzamidinosuccinyl lactone derivatives useful as inhibitors of platelet aggregation” (G.D. Searle & Co., priority 1998, dated 2000).

Where a name gives a salt, the structure may show the parent alone.

The first test deals with platelet aggregation in platelet-rich plasma (PRP). Description: In-Vitro Platelet Aggregation in PRP (ADP-induced). Format: cell-based, dogs. The following applies: Canis lupus familiaris, Platelet, dog PRP, ADP 50 μM final concentration, 1 min preincubation at 37° C., aggregation monitored 1 min; unit inferred; read-out: IC50 (dosage at which 50% of platelet aggregation is inhibited). On the procedure:
In-Vitro Platelet Aggregation in PRP
Healthy male or female dogs were fasted for 8 hours prior to drawing blood; then 30 mL whole blood was collected using a butterfly needle and 30 mL plastic syringe with 3 mL of 0.129M buffered sodium citrate (3.8%). The syringe was rotated carefully as blood was drawn to mix the citrate. Platelet-rich plasma (PRP) was prepared by centrifugation at 975×g for 3.17 minutes at room temperature allowing the centrifuge to coast to a stop without braking. The PRP was removed from the blood with a plastic pipette and placed in a plastic-capped 50 mL Corning conical sterile centrifuge tube which was held at room temperature. Platelet-poor plasma (PPP) was prepared by centrifuging the remaining blood at 2000×g for 15 minutes at room temperature allowing the centrifuge to coast to a stop without braking. The PRP was adjusted with PPP to a count of 2-3×10^8 platelets/mL. The PRP preparation (400 μL) and 50 μL of the compound solution to be tested or saline were preincubated for 1 minute at 37° C. in a BioData aggregometer (BioData, Horsham, Pa.). Adenosine-5'-diphosphate (ADP, 50 μL, 50 μM final concentration) was added to the cuvettes and the aggregation was monitored for 1 minute. All compounds are tested in duplicate. Results are calculated as follows: Percent of control=[(maximal OD minus initial OD of compound) divided by (maximal OD minus initial OD of control saline)]×100. The percent inhibition equals 100-(percent of control).
The compounds tested and their median inhibitory concentrations (IC50) are recorded in Table 1. The IC50 (dosage at which 50% of platelet aggregation is inhibited) were calculated by linear regression of the dose response curve.
For the compound `N=C(N)c1ccc(NC(=O)CCC(=O)NC(CC(=O)O)c2ccccc2O)cc1` (centres unmarked) [Ex 8 Step 1, 3-[[4-[[4-(aminoiminomethyl)phenyl]-amino]-1,4-dioxobutyl]amino-]3(-hydroxyphenyl)propanoic acid], the IC50 came to 260 nM.

Take `N=C(N)c1ccc(NC(=O)CCC(=O)N[C@H](CO)CC(=O)O)cc1` [Ex 1 Step 5, 3S-[[4-[[4-aminoiminomethyl)phenyl]amino]-1,4-dioxobutyl]amino]-4-hydroxybutanoic acid, trifluoroacetate]: the IC50 worked out at 700 nM.

Turning to `N=C(N)c1ccc(NC(=O)CCC(=O)N[C@@H]2COC(=O)C2)cc1` [Ex 1 Step 4, N-[4-(aminoiminomethyl)phenyl]-N'-(tetrahydro-5-oxo-3S-furanyl)butanediamide, Trifluoroacetate], the IC50 was determined as 3000 nM.

As for `N=C(N)c1ccc(NC(=O)CCC(=O)N[C@H]2CC(=O)OC2c2ccc(F)cc2)cc1` (single isomer, unassigned; diastereoisomer a) [Ex 4 Step 4], the IC50 was 500 nM.

`C=CC(O)[C@H](CC(=O)O)NC(=O)CCC(=O)Nc1ccc(C(=N)N)cc1` (stereo partly drawn) [Ex 7 Step 5, 3S-[[4-[[4-(aminoiminomethyl)phenyl]amino]-1,4-dioxobutyl]amino]-4-hydroxy-hex-5-enoic acid, trifluoroacetate]: the IC50 amounted to 290 nM.

In the case of `N=C(N)c1ccc(NC(=O)CCC(=O)NC2CC(=O)Oc3ccccc32)cc1` (centres unmarked) [Ex 8 Step 2, N-[4-(aminoiminomethyl)phenyl]-N'-[3,4-dihydro-2-oxo-2H-1-benzopyran-4-yl]butanediamide, Trifluoroacetate], the IC50 stood at 200 nM.

Still in this test, the particulars now being: dog PRP, ADP 50 μM final concentration, 1 min preincubation at 37° C., aggregation monitored 1 min; unit inferred; read-out: IC50 (dosage at which 50% of platelet aggregation is inhibited).
With `N=C(N)c1ccc(NC(=O)CCC(=O)N[C@@H](CC(=O)O)C(O)c2ccc(F)cc2)cc1` (single isomer, unassigned) [Ex 5 Step 2, 3S-[[4-[[4-(aminoiminomethyl)-phenyl]amino]-1,4-]dioxobutyl]amino]-4-hydroxy-(4-fluoro-phenyl)butanoic acid, trifluoroacetate], the IC50 turned out to be 800 nM.

Consider `N=C(N)c1ccc(NC(=O)CCC(=O)N[C@@H](CC(=O)O)C(O)c2ccccc2)cc1` (single isomer, unassigned) [Ex 3 Step 2, 3S-[[4-[[4-(aminoiminomethyl)phenyl]amino]-1,4-dioxobutyl]amino]-4-hydroxy-phenylbutanoic acid, trifluoroacetate], for which the IC50 was found to be 600 nM.

With `N=C(N)c1ccc(NC(=O)CCC(=O)N[C@@H](CC(=O)O)C(O)c2ccccc2)cc1` (single isomer, unassigned) [Ex 2 Step 6, 3S-[[4-[[4-(aminoiminomethyl)phenyl]amino]-1,4dioxobutyl]amino]-4-hydroxy-phenyl-butanoic acid, trifluoroacetate], the IC50 was 1600 nM.

`N=C(N)c1ccc(NC(=O)CCC(=O)NC(CC(=O)O)C(O)c2nccs2)cc1` (stereo not drawn) [Ex 6 Step 6, 3S-[[4-[[4-(aminoiminomethyl)phenyl]amino]-1,4-dioxobutyl]amino]-4-hydroxy-2-thiazolylbutanoic acid, trifluoroacetate]: the IC50 stood at 450 nM.

Regarding `N=C(N)c1ccc(NC(=O)CCC(=O)N[C@H]2CC(=O)OC2c2ccccc2)cc1` (single isomer, unassigned; isomer b) [Ex 3 Step 1, N-[4-(aminoiminomethyl)phenyl]-N'-(tetrahydro-5-oxo-2-phenyl-3S-furanyl)butanediamide, trifluoroacetate (Isomer B)], the IC50 amounted to 2500 nM.

For the compound `N=C(N)c1ccc(NC(=O)CCC(=O)N[C@@H](CC(=O)O)C(O)c2ccc(F)cc2)cc1` (single isomer, unassigned) [Ex 4 Step 5, 3S-[[4-[[4-(aminoiminomethyl)phenyl]amino]-1,4-dioxobutyl]amino]-4-hydroxy-(4-fluoro-phenyl)butanoic acid, trifluoroacetate], the IC50 stood at 150 nM.

With `N=C(N)c1ccc(NC(=O)CCC(=O)N[C@@H](CC(=O)O)C(O)c2ccc3c(c2)OCO3)cc1` (single isomer, unassigned) [Ex 9 Step 6, 3S-[[4-[[4-(aminoiminomethyl)phenyl]amino]-1,4-dioxobutyl]amino]-4-hydroxy-[5-(1,3-benzodioxolyl)]butanoic acid, trifluoroacetate], the IC50 came out at 350 nM.

With `N=C(N)c1ccc(NC(=O)CCC(=O)N[C@H]2CC(=O)OC2c2ccc3c(c2)OCO3)cc1` (single isomer, unassigned; diastereoisomer 2) [Ex 10 Step 1], the IC50 was found to be 3000 nM.

For the compound `N=C(N)c1ccc(NC(=O)CCC(=O)N[C@@H](CC(=O)O)C(O)c2ccc3c(c2)OCO3)cc1` (single isomer, unassigned) [Ex 10 Step 2, 3S-[[4-[[4-(aminoiminomethyl)phenyl]amino]-1,4-dioxobutyl]amino-4-hydroxy-4-[5-(1,3-benzodioxolyl)]butanoic acid, trifluoroacetate], the IC50 worked out at 1300 nM.

As to `N=C(N)c1ccc(NC(=O)CCC(=O)N[C@H]2CC(=O)OC2c2ccccc2)cc1` (single isomer, unassigned; isomer a) [Ex 2 Step 5, N-[4-(aminoiminomethyl)phenyl]-N'-(tetrahydro-5-oxo-2-phenyl-3S-furanyl)butanediamide, Trifluoroacetate (Isomer A)], the IC50 is 650 nM.

For the compound `N=C(N)c1ccc(NC(=O)CCC(=O)N[C@H]2CC(=O)OC2c2ccc3c(c2)OCO3)cc1` (single isomer, unassigned; diastereoisomer 1) [Ex 9 Step 5, N-[4-(aminoiminomethyl)phenyl]-N'-[tetrahydro-5-oxo-2-[5-(1,3-benzodioxolyl)]-3S-furanyl]butanediamide, Trifluoroacetate; Diastereoisomer 1], the IC50 was found to be 430 nM.

What is called IC50 is the concentration that inhibits the measured activity by half.
